Consider two compounds from US5663149A, “Human cancer inhibitory pentapeptide heterocyclic and halophenyl amides” (priority 1994, dated 1997).

The subject of series [1] is P388 Lymphocytic Leukemia. The series can be described thus: Murine in vivo system, P388 Lymphocytic Leukemia. The note with it: P388, dose 13.0 μg/kg. The source says: (§1) Experimental Anti-cancer Activity of Dolastatin 10 in Murine in vivo Systems, T/C (μg/kg)
In the next series the test system is M5076 Ovary Sarcoma. Kind of series: Murine in vivo system, M5076 Ovary Sarcoma. The conditions noted are these: M5076, dose 26 μg/kg.
Source text: as §1

Series [2] concerns LOX Human Melanoma Xenograft. The series can be described thus: LOX Human Melanoma Xenograft in nude mouse. Type of series: in vivo. The conditions noted are these: dose 52 μg/kg.
Source text: as §1
(In general: A xenograft is tissue or cells of one species grown in another, often human tumour cells in immunodeficient mice.)

The test system of a further series is Human Mammary Xenograft. Kind of series: Human Mammary Xenograft in nude mouse. The note with it: dose 26 μg/kg. The format is in vivo.
Source text: as §1

The subject of the next series is OVCAR-3 (Ovarian). The series can be described thus: NCI human tumor cell line growth inhibition, OVCAR-3. The note with it: Ovarian OVCAR-3, 48 hours. Type of series: cell-based. How it is done:
(§2) The only difference is historical usage.
(§3) Percent Growths are calculated for each dose.
(§4) This is the "baseline count", or "Tzero reading".

A further series has as its system SF-295 (CNS). The series can be described thus: NCI human tumor cell line growth inhibition, SF-295. Type of series: cell-based. The note with it: CNS SF-295, 48 hours. How it is done:
as §2, §3, §4

Another series relates to NCI-H460 (Lung-NSC). The series can be described thus: NCI human tumor cell line growth inhibition, NCI-H460. The format is cell-based. The conditions noted are these: Lung-NSC NCI-H460, 48 hours. How it is done: as §2, §3, §4
The subject of the next series is KM20L2 (Colon). The series can be described thus: NCI human tumor cell line growth inhibition, KM20L2. The format is cell-based. The note with it: Colon KM20L2, 48 hours. How it is done:
as §2, §3, §4

The next series relates to SK-MEL-5 (Melanoma). Kind of series: NCI human tumor cell line growth inhibition, SK-MEL-5. Type of series: cell-based. The conditions noted are these: Melanoma SK-MEL-5, 48 hours. The procedure:
as §2, §3, §4

The next series has as its system PS-388 (Mouse Leukemia). The series can be described thus: P-388 mouse leukemia cell growth inhibition. The conditions noted are these: Mouse Leukemia PS-388. Type of series: cell-based. The procedure: as §2, §3, §4
A further series has as its system A498 (Renal). The note with it: Renal A498, 48 hours.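 Note: NCI protocol, compound given at five doses from 0.01 to 100 µg/ml, percent growth versus untreated controls relative to cell count at time zero, regression on log dose.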

Source text for A498 (Renal): The following measures are used to express drug activity by giving the drug dose which reduces cell growth to a specified percentage of growth:
There is no mathematical difference between ED50 and GI50, which are both calculated using the same formula. The only difference is historical usage.
TGI, (Total Growth Inhibition), is the drug dose needed to yield zero percent growth, i.e., just as many cells at the end of the experiment as were present in the beginning. Whether just as many cells were killed as were produced (steady state), or no growth occurred (total inhibition), cannot be distinguished.
Each drug is tested at five (5) doses: 100-10-1-0.1-0.01 μg/ml. Percent Growths are calculated for each dose. […] The log of the dose is used during the regression computation.
At the start of an experiment, cells from the in vitro cell cultures are inoculated into the appropriate tubes or microtiter plates. One set of control tubes/plates is immediately counted to determine the number of cells at the start of the experiment. This is the "baseline count", or "Tzero reading". At the end of the experiment (48 hours later) a second set of control tubes/plates is analyzed to determine the "Control Growth" value. The growth (or death) of cells relative to the initial quantity of cells is used to define the "Percent of Growth".

`CC[C@H](C)[C@@H]([C@@H](CC(=O)N1CCC[C@H]1[C@H](OC)[C@@H](C)C(=O)N[C@@H](Cc1ccccc1)c1nccs1)OC)N(C)C(=O)[C@@H](NC(=O)[C@H](C(C)C)N(C)C)C(C)C` [Dolastatin 10]: the “T/C outcome: toxic” value in series [1] was “toxic”; with M5076 Ovary Sarcoma, “toxic”; in series [2], “toxic”; in the series with Human Mammary Xenograft it was “Toxic”.
On to “L-Dolavalyl-L-Valyl-N-Methyl-(S,S,R)-Dolaisoleuinyl-(S,R,R)-Dolaproinyl-L- Valine N-3-Quinoline Amide [9r]”, for which the GI-50 worked out at 0.000019 µg/mL in the series on OVCAR-3 (Ovarian); 0.000027 µg/mL in the series on SF-295 (CNS); 0.000026 µg/mL in the series on NCI-H460 (Lung-NSC); 0.000031 µg/mL in the series on KM20L2 (Colon); 0.0000057 µg/mL in the series with SK-MEL-5 (Melanoma); 0.000051 µg/mL in the series with A498 (Renal). In addition, the LC-50 with OVCAR-3 (Ovarian), with SF-295 (CNS), with NCI-H460 (Lung-NSC), in the series on KM20L2 (Colon), with SK-MEL-5 (Melanoma) and with A498 (Renal) was over 0.0001 µg/mL throughout. Further, the TGI was 0.069 ng/mL in the series with OVCAR-3 (Ovarian); over 0.1 ng/mL in the series on SF-295 (CNS); over 0.1 ng/mL with NCI-H460 (Lung-NSC); over 0.1 ng/mL in the series on KM20L2 (Colon); over 0.1 ng/mL in the series on SK-MEL-5 (Melanoma); over 0.1 ng/mL with A498 (Renal). Besides, the ED-50 in the series with PS-388 (Mouse Leukemia) was determined as 0.0041 µg/mL.

For orientation: TGI means the concentration giving total growth inhibition. High values mean lower sensitivity of the cells, low ones greater sensitivity of the cells.
